From ChEMBL document CHEMBL3390834, “Development of second generation epigenetic agents” (Medchemcomm, 2012)

Biological target: Histone deacetylase 2 (Homo sapiens, UniProt Q92769)
Assay: Inhibition of recombinant human HDAC-2 expressed in baculovirus infected insect Sf9 cells using Fluor de Lys as substrate preincubated for 2 hrs followed by substrate addition measured after 10 mins by fluorescence assay

Sequence of Histone deacetylase 2 (Q92769 whole entry): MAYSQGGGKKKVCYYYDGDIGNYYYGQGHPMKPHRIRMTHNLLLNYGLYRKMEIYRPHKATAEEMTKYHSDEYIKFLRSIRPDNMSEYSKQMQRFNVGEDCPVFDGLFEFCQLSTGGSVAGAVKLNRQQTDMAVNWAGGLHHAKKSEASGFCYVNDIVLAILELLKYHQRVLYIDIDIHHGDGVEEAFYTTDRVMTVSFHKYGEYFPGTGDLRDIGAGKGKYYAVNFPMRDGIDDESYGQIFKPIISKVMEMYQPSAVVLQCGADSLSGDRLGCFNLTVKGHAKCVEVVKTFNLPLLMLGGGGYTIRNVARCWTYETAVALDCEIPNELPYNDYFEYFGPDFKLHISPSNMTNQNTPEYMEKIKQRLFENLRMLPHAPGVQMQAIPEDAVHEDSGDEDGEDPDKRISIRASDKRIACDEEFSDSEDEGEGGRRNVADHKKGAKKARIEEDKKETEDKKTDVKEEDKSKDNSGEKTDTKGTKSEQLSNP

CCCCc1nc2cc(/C=C/C(=O)NO)ccc2n1CCN(CC)CC [PRACINOSTAT]
Ki: 0.016 µM
